Experiments:
[1] = tested on: ConA-challenged C57BL-6 mice; experiment: ConA-induced hepatotoxicity with soybean-derived extracts (Example 6); format: in vivo; details: combinations 1:1, especially 0.3 and 3 μg per mouse
Description: Either two (Example 1 (A)) or three (Example 1 (B)) groups of mice (10 mice per group) were studied. ConA was dissolved in 50 mM Tris (pH 7), 150 mM NaCl, and 4 mM CaCl2. To induce autoimmune hepatitis, mice were injected i.v. with 20 mg/kg ConA. Control mice were injected with PBS. A specified dosage of […] or vehicle was administered to the mice orally […] before (Example 1 (A)) or 30 min after (Example 1 (B)) they had received an injection of ConA. The mice were sacrificed 16 h (Example 1 (A)) or 17 h (Example 1 (B)) later. For Example 4 (ConA challenge in different […] extracts), six groups of 4-5 11-12 weeks old male C57BL/6 mice were treated per os for three days with extracts as show in Table 4. The mice were injected i.v. (tail vein) 500 μg of ConA, (20 mg/kg body weight) and sacrificed 14 h later. After sacrifice measurements of serum IFN-γ was carried out using ELISA. […] Serum ALT and AST activities were determined and serum levels of IFN-γ and TNF-α were measured. […] Serum levels of IFN-γ, TNF-α, and IL-6 were determined by “sandwich” ELISA using commercial kits according to the manufacturer's instructions. […] Serum ALT and AST activities were determined and serum levels of IFN-γ and TNF-α were measured.

HFD-fed mice = experiment: HFD obese mouse model with soybean extracts M1, OS and combinations (Example 7); format: in vivo
Description: Five mice per experimental group were fed HFD diet, comprising 42% calories from fat. The mice were administered the indicated extracts per os 3 times a week for three months, and then sacrificed. The mice weight, fasting glucose levels, ALT, serum triglycerides (TGs) and cholesterol were determined every 2 weeks. Glucose Tolerance Test was performed after 4 and 12 weeks. On sacrifice day, serum and a liver biopsy were collected for determination of serum insulin levels, liver TG and for H&E histological analysis.
After sacrifice, measurements of serum ALT and AST activities were carried out, and serum levels of IFN-γ, TNF-α and insulin were determined.
TGs were extracted from aliquots of snap-frozen livers using a modification of the Folch method. Hepatic TG content was assayed spectrophotometrically using a GPO-Trinder kit and was normalized to the protein content in the homogenate.
Plasma TG and total cholesterol were measured by a clinical chemistry analyzer, the Reflovet Plus machine.
Fasting glucose levels were measured after overnight (12 h) fasting. Serum glucose measurements were performed on tail-vein blood by a standard glucometer.
Mice underwent a GTT after overnight fasting. Glucose was administered orally (1.25 g/kg body weight). Serum glucose measurements were performed on tail-vein blood every 15 min for 3 h. Glucose levels were measured by a standard glucometer.
Serum insulin levels were determined using a commercially available ELISA kit (Mercodia), according to the manufacturer's instructions. Serum was collected from euthanized mice on the day of sacrifice (after 12 h fasting) and kept in −80° C. until analysis.
Serum levels of IFN-γ, TNF-α, and IL-6 were determined by “sandwich” ELISA using commercial kits according to the manufacturer's instructions.
Flow cytometry was performed following splenocyte and hepatic lymphocyte isolation using 1×10^6 lymphocytes in 100 μl PBS with 0.1% BSA. For surface staining, cells were incubated with fluorochrome-conjugated antibodies to the indicated cell surface markers at the recommended dilutions or with isotype control antibodies for 30 minutes at 4° C. The following cell surface anti-mouse antibodies were used: CD4/CD3-Pacific Blue, CD25/NK1.1-PE and CD8-FITC. Cells were then washed in PBS containing 1% BSA and fixed with fixation buffer for another 50 minutes. For intracellular staining of Foxp3, fixed cells were permeabilized with Foxp3 staining buffer. Cells were then stained with PE-Cy7-conjugated antibodies to Foxp3, washed twice and resuspended in 250 μl of PBS containing 1% BSA and kept at 4° C. One million stained cells in 250 μl of PBS containing 1% BSA were subsequently analyzed using a FACS LSR II instrument with FCS express V.3 software. Only live cells were counted, and background fluorescence from non-antibody-treated lymphocytes was subtracted.
A HFD obese mouse model was therefore used to assess the hepatoprotective action of the soybean extracts M1, OS and their combinations. Young (6-7 weeks old) male C57BL/6 mice (5 mice per experimental group) were fed HFD diet ad libitum for 12 weeks. The mice were administered the indicated soybean extracts or combinations per os 3 times a week for the duration of the experiment. After 12 weeks, the mice were sacrificed. During the experiment the mice weight, fasting glucose level, ALT, serum triglycerides (TGs) and cholesterol were measured every 2 weeks, and glucose tolerance test was carried out after the fourth and twelfth weeks. On sacrifice day, serum samples and livers were collected. Serum TNF-α and insulin were determined, hepatic TG were measured and a liver section stained with H&E was prepared and analyzed. A FACS analysis of splenic T regulatory and NKT cells was also performed.

glucosylceramide [GC]
hepatic protection (liver enzymes and serum IFN-γ and TNF-α), summary [1]: significant decrease | effectiveness over all tested parameters, summary (HFD-fed mice; HFD model, combinations 1:1, 0.3 μg and 3 μg per mouse): effective but not in all tested parameters | fasting glucose levels (HFD-fed mice; M1/OS mixtures (both doses), GC 25 μg, vs control mice): significantly lower | GTT results (HFD-fed mice; after 12 weeks in HFD, vs control and OS-treated mice): marked improvement | liver lipid accumulation (H&E stained liver sections) (HFD-fed mice; both M1/OS mixture doses (0.3 μg each and 3 μg each), GC 25 μg): striking improvement | hepatic TG levels (HFD-fed mice; single agents (M1 3 μg, GC 25 μg), week 12, vs control mice): no clear effect | fasting insulin levels (HFD-fed mice; single agents (OS 3 μg, GC 25 μg, M1 3 μg), week 12): lowest

Reference: US20130202724A1, “SOYBEAN EXTRACTS FOR THE TREATMENT OF HEPATIC DISORDERS” (Hadasit Medical Research Services and Development Ltd., priority 2010, published 2013)
